These results are taken from US20160115539A1, “USE OF A SLC MAMMALIAN SKIN TRANSPORTER” (GALDERMA RESEARCH & DEVELOPMENT, priority 2013, published 2016).

Common to all, as to assay type: cell-based
Assay [1] concerns SLC47A2 (MATE2). Nature of the assay: Effect of Rifampicin on SLC47A2 mRNA expression in human skin organoculture (real time PCR). The note with it: Rifampicin 20 μM, 72 hours. On the procedure:
(§1) Fresh human skin samples from 3 different donors were used and maintained in organoculture. Four skin biopsies of 6 mm diameter were used per well of 6-well plate, filled with long term skin culture medium (Biopredic, France) (FIG. 1). Skin samples were treated with 20 μM Rifampicin during 3 days. In a separate experiment, skin samples were exposed during one hour every day during 3 days to UV lights via a solar simulator (UVA 110 W/m^2; UVB 20 W/m^2). Untreated skin samples were used as control. The culture plates were kept in a cell culture incubator set at 37° C., 5% CO2 and saturated hygrometry. At the end of treatment period gene expression of SLC transporters was measured as described above.
(§2) After homogenization of skin samples or hepatocytes in lysis buffer (Promega), total RNA was isolated using SV Total RNA Isolation System (Promega), in accordance with the instructions provided by the constructor. RNA concentrations were quantified spectrophotometrically. Quantification of mRNA expression of human SLC transporters was performed using TaqMan PCR techniques (Applied Biosystems). Experiments were carried out on a 7500 real time PCR System (Applied Biosystems) using Assay-on-Demand gene expression products. For this, 500 ng of total RNA were reverse-transcribed using the High Capacity RNA to cDNA Master Mix kit (Applied Biosystems).
(In qPCR the cycle at which signal appears reflects the starting amount.)

In assay [2] the test system is SLC47A1 (MATE1). Nature of the assay: Effect of Rifampicin on SLC47A1 mRNA expression in human skin organoculture (real time PCR). The note with it: Rifampicin 20 μM, 72 hours, p≦0.05. On the procedure:
as §1, §2

The test system of assay [3] is SLC47A1 (MATE1). Nature of the assay: Effect of Rifampicin on SLC47A1 mRNA expression in human hepatocytes in primary culture (real time PCR). Conditions: Rifampicin 20 μM, 72 hours. On the procedure: as §2

Molecules are shown by their SMILES.

On to `CO[C@H]1/C=C/O[C@@]2(C)Oc3c(C)c(O)c4c(O)c(c(/C=N/N5CCN(C)CC5)c(O)c4c3C2=O)NC(=O)/C(C)=C\C=C\[C@H](C)[C@H](O)[C@@H](C)[C@@H](O)[C@@H](C)[C@H](OC(C)=O)[C@@H]1C` [Rifampicin], for which the “decrease in MATE2 expression” value in assay [1] came out at 30%. The “decrease in MATE1 expression” value in assay [2] came out at 44%. The “decrease in expression of SLC47A1 (MATE1)” value in assay [3] is on record as 48%.
